Read-outs that look alike come from different tables or passages of the source.
What was measured:
[1] = tested on: CEM WT, CEM AB9228, MOLT-4, Jurkat, NALL-1, WI-L2, K562, and HL-60 cells; assay: Cytotoxicity to various proliferating cell lines (average); type: cell-based, human; conditions: average TC50 over various proliferating cell lines, read-out: TC50 (the source's name)
Description: (§1) (B) Similarly, compounds of the invention were tested for their ability to kill CEM WT, CEM AB9228, MOLT-4, Jurkat, NALL-1, WI-L2, K562, and HL-60 cells.

[2] = tested on: proliferating cells; assay: Ability of further compounds to kill proliferating cells (average); type: cell-based; conditions: average TC50, proliferating cells; read-out: TC50 (the source's name)
Description: as §1
(C) Proceeding as described above, further compounds were tested for their ability to kill proliferating cells.

COc1cc2c(cc1OC)C(=O)C(=Cc1cc(F)cc(F)c1)C2 [5,6-dimethoxy-2-(3',5'-difluorophenylmethylene)-1-indanone (]
CC50 [1]: 26 µM

COc1cccc2c1C(=O)C(=Cc1cc(C)c(O)c(C)c1)C2 [7-methoxy-2-(3',5'-dimethyl-4'-hydroxyphenylmethylene)-1-indanone]
CC50 ([1]; Homo sapiens): 51 µM

COc1ccccc1C=C1CCc2cc(OC)c(OC)cc2C1=O [6,7-dimethoxy-2-(2'-methoxyphenylmethylene)-1-tetralone]
CC50 [2]: > 50 µM

COc1cc(C=C2Cc3cc(OC)ccc3C2=O)cc(OC)c1 [5-methoxy-2-(3',5'-dimethoxyphenylmethylene)-1-indanone]
CC50 [2]: > 50 µM

COc1cc2c(cc1OC)C(=O)C(=Cc1c(O)cc(I)cc1I)C2 [5,6-dimethoxy-2-(2'-hydroxy-4',6'-diiodophenylmethylene)-1-indanone]
CC50 ([1]; Homo sapiens): 18 µM

COc1cc2c(cc1OC)C(=O)C(=Cc1cc(OC)c(OC)c(OC)c1)CC2 [6,7-dimethoxy-2-(3',4',5'-trimethoxyphenylmethylene)-1-tetralone]
CC50 ([1]; Homo sapiens): > 50 µM

COc1cc2c(cc1OC)C(=O)C(=Cc1cc(I)cc(I)c1O)C2 [5,6-dimethoxy-2-(2'-hydroxy-3',5'-diiodophenylmethylene)-1-indanone]
CC50 [2]: 12.5 µM

COc1cc2c(cc1OC)C(=O)C(=Cc1cc(C(F)(F)F)cc(C(F)(F)F)c1)C2 [5,6-dimethoxy-2-(3',5'-ditrifluoromethylphenylmethylene)-1-indanone]
CC50 [2]: > 50 µM

COc1cc(C=C2Cc3cc(C)c(C)cc3C2=O)cc(OC)c1 [5,6-dimethyl-2-(3',5'-dimethoxyphenylmethylene)-1-indanone]
CC50 [2]: > 50 µM

COc1ccc2c(c1)C(=O)C(=Cc1cc(C)c(O)c(C)c1)C2 [6-methoxy-2-(3',5'-dimethyl-4'-hydroxyphenylmethylene)-1-indanone]
CC50 ([1]; Homo sapiens): > 50 µM

6,7-dimethoxy-2-(4'-(pyridine-N-oxide)phenylmethylene)-1-tetralone
CC50 [1]: > 50 µM

O=C1C(=Cc2cc(Cl)cc(Cl)c2)Cc2ccccc21 [2-(3',5'-dichlorophenylmethylene)-1-indanone]
CC50 [2]: 30 µM

COC(=O)C(=O)Nc1c(OC)c(OC)cc2c1C(=O)C(=Cc1cc(C)c(O)c(C)c1)C2 [5,6-dimethoxy-7-methoxalylamino-2-(3',5'-dimethyl-4'-hydroxyphenylmethylene)-1-indanone]
CC50 [2]: 0.2 µM

COc1cc2c(cc1OC)C(=O)C(=Cc1cccc(Cl)c1)CC2 [6,7-dimethoxy-2-(3'-chlorophenylmethylene)-1-tetralone]
CC50 [2]: 9 µM

COc1cc2c(cc1OC)C(=O)C(=Cc1cc(Cl)cc(Cl)c1)CC2 [6,7-dimethoxy-2-(3',5'-dichlorophenylmethylene)-1-tetralone]
CC50 [2]: 7 µM

COc1cc2c(cc1OC)C(=O)C(=Cc1cc(OC)c(O)c(OC)c1)CC2 [6,7-dimethoxy-2-(3',5'-dimethoxy-4'-hydroxyphenylmethylene)-1-tetralone]
CC50 [2]: 6 µM

COc1ccc(C=C2CCc3cc(OC)c(OC)cc3C2=O)c(OC)c1 [6,7-dimethoxy-2-(2',4'-dimethoxyphenylmethylene)-1-tetralone]
CC50 [2]: > 50 µM

O=C1C(=Cc2cccc(O)c2O)CCc2cc(O)c(O)cc21 [6,7-dihydroxy-2-(2',3'-dihydroxyphenylmethylene)-1-tetralone]
CC50 ([1]; Homo sapiens): > 50 µM

COc1cc2c(cc1OC)C(=O)C(=Cc1c(Cl)cc(-c3ccncc3)cc1Cl)C2 [5,6-dimethoxy-2-(2',6'-dichloro-4'-(pyridin-4-yl)phenylmethylene)-1-indanone]
CC50 ([1]; Homo sapiens): 40 µM

O=C1C(=Cc2cc(O)c(O)c(O)c2)CCc2cc(O)c(O)cc21 [6,7-dihydroxy-2-(3',4',5'-trihydroxyphenylmethylene)-1-tetralone]
CC50 ([1]; Homo sapiens): 43 µM

COc1cc2c(cc1OC)C(=O)C(=Cc1cc(C)c(OC(=O)CP(=O)(O)O)c(C)c1)C2 [5,6-dimethoxy-2-(3',5'-dimethyl-4'-phosphonoacetoxyphenylmethylene)-1-indanone]
CC50 [2]: 11.5 µM

COc1cc2c(cc1OC)C(=O)C(=Cc1ccc(O)c(C(=O)O)c1)CC2 [6,7-dimethoxy-2-(3'-hydrocarboxy-4'-hydroxyphenylmethylene)-1-tetralone]
CC50 ([1]; Homo sapiens): > 50 µM

COc1cc2c(cc1OC)C(=O)C(=Cc1cc(C)c(OC(=O)CCC(=O)O)c(C)c1)C2 [5,6-dimethoxy-2-(3',5'-dimethyl-4'-succinophenylmethylene)-1-indanone]
CC50 [2]: 0.07 µM

COc1cc2c(cc1OC)C(=O)C(=Cc1cc(C)ccc1C)CC2 [6,7-dimethoxy-2-(2',5'-dimethylphenylmethylene)-1-tetralone]
CC50 ([1]; Homo sapiens): 5 µM

COc1cc2c(cc1OC)C(=O)C(=Cc1cc(C)c(OC(=O)CCC(=O)O)c(C)c1)C2 [5,6-dimethoxy-2-(3',5'-dimethyl-4'-O-succinylphenylmethylene)-1-indanone]
CC50 ([1]; Homo sapiens): 1 µM

COc1cc2c(cc1OC)C(=O)C(=Cc1c(C)cccc1C)CC2 [6,7-dimethoxy-2-(2',6'-dimethylphenylmethylene)-1-tetralone]
CC50 ([1]; Homo sapiens): > 50 µM

COc1cc2c(cc1OC)C(=O)C(=Cc1cc(C)cc(C)c1)CC2 [6,7-dimethoxy-2-(3',5'-dimethylphenylmethylene)-1-tetralone]
CC50 ([1]; Homo sapiens): 4 µM

COc1cccc(C=C2CCc3cc(OC)c(OC)cc3C2=O)c1 [6,7-dimethoxy-2-(3'-methoxyphenylmethylene)-1-tetralone]
CC50 [2]: 5 µM

COc1cc2c(cc1OC)C(=O)C(=Cc1cc(C)c(OC(C)=O)c(C)c1)C2 [5,6-dimethoxy-2-(3',5'-dimethyl-4'-acetoxyphenylmethylene)-1-indanone]
CC50 [2]: 0.4 µM

COc1cc(C=C2Cc3cc4c(cc3C2=O)OCO4)cc(OC)c1 [5,6-methylenedioxy-2-(3',5'-dimethoxyphenylmethylene)-1-indanone]
CC50 ([1]; Homo sapiens): > 50 µM

COc1cc2c(cc1OC)C(=O)C(=Cc1cc(OC(F)(F)F)cc(OC(F)(F)F)c1)C2 [5,6-dimethoxy-2-(3',5'-ditrifluoromethoxyphenylmethylene)-1-indanone]
CC50 ([1]; Homo sapiens): > 100 µM

COc1cc2c(c(NC(=O)C=O)c1OC)C(=O)C(=Cc1cc(C)c(O)c(C)c1)C2 [5,6-dimethoxy-7-(NHCOCOH)-2-(3',5'-dimethyl-4'-hydroxyphenylmethylene)-1-indanone]
CC50 [2]: 0.0015 µM

COc1cc2c(cc1OC)C(=O)C(=Cc1cccc([N+](=O)[O-])c1)CC2 [6,7-dimethoxy-2-(3'-nitrophenylmethylene)-1-tetralone]
CC50 [2]: 9 µM

O=C1C(=Cc2cc(Cl)cc(Cl)c2)Cc2cc(O)c(O)cc21 [5,6-dihydroxy-2-(3',5'-dichlorophenylmethylene)-1-indanone]
CC50 ([1]; Homo sapiens): 30 µM

COc1ccc(OC)c(C=C2CCc3cc(OC)c(OC)cc3C2=O)c1 [6,7-dimethoxy-2-(2',5'-dimethoxyphenylmethylene)-1-tetralone]
CC50 ([1]; Homo sapiens): 11 µM

COc1cc2c(cc1OC)C(=O)C(=CC1(O)CC(OC)CC(OC)C1)C2 (stereo not drawn) [5,6-dimethoxy-2-(3',5'-dimethoxy-1'-hydroxycyclohexylmethylene)-1-indanone]
CC50 ([1]; Homo sapiens): 2 µM

5,6-dimethoxy-2-(3',5'-dimethyl-4'-phosphonoacetylphenylmethylene)-1-indanone
CC50 [1]: 0.007 µM

COc1cc(O)c(C=C2CCc3cc(OC)c(OC)cc3C2=O)c(OC)c1 [6,7-dimethoxy-2-(2',4'-dimethoxy-6'-hydroxyphenylmethylene)-1-tetralone]
CC50 ([1]; Homo sapiens): 10 µM

COc1cc2c(cc1OC)C(=O)C(=Cc1ccc(N)cc1)CC2 [6,7-dimethoxy-2-(4'-aminophenylmethylene)-1-tetralone]
CC50 ([1]; Homo sapiens): > 50 µM
